Measurements published in patent US8957064B2, “Fused pyrimidines” (Bayer Intellectual Property GmbH, priority 2009, dated 2015).

Tests used:
[1] = biological target: His-tagged human recombinant kinase full-length Akt1 (Homo sapiens (Human), UniProt P31749); experiment: Akt1 kinase assay (Akt1 TR-FRET assay, Biological Assay 1.0); assay type: biochemical; settings: 10 μM ATP, 1 μM biotinylated peptide substrate, 60 min at 22° C.
Description: Biological Assay 1.0: Akt1 Kinase Assay
Akt1 inhibitory activity of compounds of the present invention may be quantified employing the Akt1 TR-FRET assay as described in the following paragraphs. His-tagged human recombinant kinase full-length Akt1 expressed in insect cells was purchased form Invitrogen (part number PV 3599). As substrate for the kinase reaction the biotinylated peptide biotin-Ahx-KKLNRTLSFAEPG (C-terminus in amide form) was used which can be purchased e.g. from the company Biosynthan GmbH (Berlin-Buch, Germany).
(§1) For the assay 50 nl of a 100 fold concentrated solution of the test compound in DMSO was pipetted into a black low volume 384 well microtiter plate (Greiner Bio-One, Frickenhausen, Germany), 2 μl of a solution of Akt1 in assay buffer [50 mM TRIS/HCl pH 7.5, 5 mM MgCl2, 1 mM dithiothreitol, 0.02% (v/v) Triton X-100 (Sigma)] were added and the mixture was incubated for 15 min at 22° C. to allow prebinding of the test compounds to the enzyme before the start of the kinase reaction. Then the kinase reaction was started by the addition of 3 μl of a solution of adenosine-tri-phosphate (ATP, 16.7 μM=>final conc. in the 5 μl assay volume is 10 μM) and substrate (1.67 μM=>final conc. in the 5 μl assay volume is 1 μM) in assay buffer and the resulting mixture was incubated for a reaction time of 60 min at 22° C. The concentration of Akt1 in the assay was adjusted depending of the activity of the enzyme lot and was chosen appropriate to have the assay in the linear range, typical enzyme concentrations were in the range of about 0.05 ng/μl (final conc. in the 5 μl assay volume).
(§2) The reaction was stopped by the addition of 5 μl of a solution of HTRF detection reagents (200 nM streptavidine-XL665 [Cisbio] and 1.5 nM anti-phosho-Serine antibody [Millipore, cat. #35-001] and 0.75 nM LANCE Eu-W 1024 labeled anti-mouse IgG antibody [Perkin Elmer]) in an aqueous EDTA-solution (100 mM EDTA, 0.1% (w/v) bovine serum albumin in 50 mM HEPES/NaOH pH 7.5).
(§3) The resulting mixture was incubated 1 h at 22° C. to allow the binding of the biotinylated phosphorylated peptide to the streptavidine-XL665 and the antibodies. Subsequently the amount of phosphorylated substrate was evaluated by measurement of the resonance energy transfer from the anti-mouse-IgG-Eu-Chelate to the streptavidine-XL665. Therefore, the fluorescence emissions at 620 nm and 665 nm after excitation at 350 nm was measured in a HTRF reader, e.g. a Rubystar (BMG Labtechnologies, Offenburg, Germany) or a Viewlux (Perkin-Elmer). The ratio of the emissions at 665 nm and at […] was taken as the measure for the amount of phosphorylated substrate. The data were normalised (enzyme reaction without inhibitor=0% inhibition, all other assay components but no enzyme=100% inhibition).

[2] = biological target: His-tagged human recombinant kinase full-length Akt2 activated by PDK1 (Homo sapiens (Human), UniProt P31751); experiment: Akt2 kinase assay (Akt2 TR-FRET assay, Biological Assay 2.0); assay type: biochemical; settings: 10 μM ATP, 1 μM biotinylated peptide substrate, 60 min at 22° C.
Description: Biological Assay 2.0: Akt2 Kinase Assay
Akt2 inhibitory activity of compounds of the present invention was quantified employing the Akt2 TR-FRET assay as described in the following paragraphs.
His-tagged human recombinant kinase full-length Akt2 expressed in insect cells and activated by PDK1 was purchased form Invitrogen (part number PV 3975). As substrate for the kinase reaction the biotinylated peptide biotin-Ahx-KKLNRTLSFAEPG (C-terminus in amide form) was used which can be purchased e.g. from the company Biosynthan GmbH (Berlin-Buch, Germany).
as §1, with “Akt2” for “Akt1”, “0.2” for “0.05”
as §2
as §3, with “TR-FRET” for “HTRF”

Sequence of His-tagged human recombinant kinase full-length Akt1 (P31749 whole entry): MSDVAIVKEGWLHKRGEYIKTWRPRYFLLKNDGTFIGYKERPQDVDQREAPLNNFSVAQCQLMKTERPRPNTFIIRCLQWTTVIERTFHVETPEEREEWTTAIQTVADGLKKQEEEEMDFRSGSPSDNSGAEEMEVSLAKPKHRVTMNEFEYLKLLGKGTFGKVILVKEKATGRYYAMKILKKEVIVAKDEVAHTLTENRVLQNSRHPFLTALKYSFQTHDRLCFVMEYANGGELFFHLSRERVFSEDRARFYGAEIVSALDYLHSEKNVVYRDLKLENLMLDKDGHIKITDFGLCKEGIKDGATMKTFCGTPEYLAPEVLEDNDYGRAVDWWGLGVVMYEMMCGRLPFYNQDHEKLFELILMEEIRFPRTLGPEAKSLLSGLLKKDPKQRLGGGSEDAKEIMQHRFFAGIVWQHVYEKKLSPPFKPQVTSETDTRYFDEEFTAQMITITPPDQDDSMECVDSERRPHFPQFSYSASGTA
Sequence of His-tagged human recombinant kinase full-length Akt2 activated by PDK1 (P31751 whole entry): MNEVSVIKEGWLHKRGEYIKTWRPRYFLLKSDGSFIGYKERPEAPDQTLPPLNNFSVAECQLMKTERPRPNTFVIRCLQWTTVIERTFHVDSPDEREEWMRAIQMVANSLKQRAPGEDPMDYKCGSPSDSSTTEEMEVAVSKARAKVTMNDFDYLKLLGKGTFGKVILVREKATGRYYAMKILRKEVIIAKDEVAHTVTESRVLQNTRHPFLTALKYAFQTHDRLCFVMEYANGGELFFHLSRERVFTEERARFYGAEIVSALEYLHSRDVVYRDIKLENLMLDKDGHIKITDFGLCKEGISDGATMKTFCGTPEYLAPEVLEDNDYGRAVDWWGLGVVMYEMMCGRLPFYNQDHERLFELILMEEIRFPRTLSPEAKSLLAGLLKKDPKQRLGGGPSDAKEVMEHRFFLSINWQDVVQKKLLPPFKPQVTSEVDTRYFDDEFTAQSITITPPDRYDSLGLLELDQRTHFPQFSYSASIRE

Row | IC50 [1] [nM] | IC50 [2] [nM] | SMILES
1 | 315 | 759 | Cc1nc2nc(-c3ccc(CN4CCC(c5nc6cccnc6[nH]5)CC4)cc3)c(-c3ccccc3)cn2n1 [Example 23.0, 5-{4-[4-(3H-imidazo[4,5-b]pyridin-2-yl)-piperidin-1-ylmethyl]-phenyl}-2-methyl-6-phenyl-[1,2,4]triazolo[1,5-a]pyrimidine]
2 | 12 | 115 | COC(=O)c1cnn2cc(-c3c(F)cccc3F)c(-c3ccc(CN4CC(c5n[nH]c(-c6cccc(C)n6)n5)C4)cc3)nc12 [Example 27.0, 6-(2,6-difluorophenyl)-5-(4-{3-[5-(6-methylpyridine-2-yl)-1H-[1,2,4]triazole-3-yl]-azetidine-1-ylmethyl}-phenyl)-pyrazolo[1,5-a]pyrimidine-3-carboxylic acid methyl ester]
3 | 70 | 14 | Cc1cccc(-c2nc(C3CN(Cc4ccc(-c5nc6nc(C(C)C)nn6cc5-c5ccccc5)cc4)C3)n[nH]2)n1 [Example 31.0, 2-isopropyl-5-(4-{3-[5-(6-methyl-pyridine-2-yl)-1H-[1,2,4]triazolo-3-yl]-azetidine-1-ylmethyl}-phenyl)-6-phenyl-[1,2,4]triazolo[1,5-a]pyrimidine]
4 | 7 | 214 | COC(=O)c1cnn2cc(-c3ccc(F)cc3F)c(-c3ccc(CN4CC(c5n[nH]c(-c6ccccn6)n5)C4)cc3)nc12 [Example 32.0, 6-(2,4-difluorophenyl)-5-(4-{3-[5-(pyridine-2-yl)-1H-[1,2,4]triazole-3-yl]-azetidine-1-ylmethyl}-phenyl)-pyrazolo[1,5-a]pyrimidine-3-carboxylic acid methyl ester]
5 | 365 | 2290 | Fc1ccc(-c2cn3ccnc3nc2-c2ccc(CN3CCC(c4cnc5ccccc5n4)CC3)cc2)cc1 [Example 34.0, 2-(1-{4-[6-(4-fluorophenyl)-imidazo[1,2-a]pyrimidin-7-yl]-benzyl}-piperidine-4-yl)-quinoxaline]
6 | 70 | 589 | c1ccc(-c2cn3ccnc3nc2-c2ccc(CN3CCC(c4cnc5ccccc5n4)CC3)cc2)cc1 [Example 36.0, 2-{1-[4-(6-phenyl-imidazo[1,2-a]pyrimidin-7-yl)-benzyl]-piperidine-4-yl}-quinoxaline]
7 | 77 | 256 | Cc1cn2cc(-c3ccccc3)c(-c3ccc(CN4CCC(c5cnc6ccccc6n5)CC4)cc3)nc2n1 [Example 37.0, 2-{1-[4-(2-methyl-6-phenyl-imidazo[1,2-a]pyrimidin-7-yl)benzyl]-piperidine-4-yl}-quinoxaline]
8 | 247 | 273 | c1ccc(-c2cn3nc(C4CC4)nc3nc2-c2ccc(CN3CCC(c4cnc5ccccc5n4)CC3)cc2)cc1 [Example 40.0, 2-{1-[4-(2-cyclopropyl-6-phenyl-[1,2,4]triazolo[1,5-a]pyrimidin-5-yl)-benzyl]-piperidine-4-yl}-quinoxaline]

Continued, molecule first:

Row | SMILES | IC50 [1] [nM] | IC50 [2] [nM]
9 | Cc1nc2nc(-c3ccc(CN4CCC(n5ncc6c(N)ncnc65)CC4)cc3)c(-c3ccccc3)cn2n1 [Example 22.0, 1-{1-[4-(2-methyl-6-phenyl-[1,2,4]-triazolo[1,5-a]pyrimidin-5-yl)benzyl]-piperidin-4-yl}-1H-pyrazolo[3,4-d]pyrimidin-4-ylamine] | 288 | 417
10 | Cc1nc2nc(-c3ccc(CN4CCC(c5cnc6ccccc6n5)CC4)cc3)c(-c3ccccc3)cn2n1 [Example 24.1, 2-{1-[4-(2-methyl-6-phenyl-[1,2,4]triazolo[1,5-a]pyrimidin-5-yl)-benzyl]-piperidin-4-yl}-quinoxaline] | 4370 | 9880
11 | Cc1nc2nc(-c3ccc(CN4CC(c5n[nH]c(-c6ccccn6)n5)C4)cc3)c(-c3ccccc3)cn2c1Br [Example 26.0, 3-bromo-2-methyl-6-phenyl-7-{4-[3-(5-pyridine-2-yl-1H-[1,2,4]triazole-3-yl]-azetidine-1-ylmethyl]-phenyl}-imidazo[1,2-a]pyrimidine] | 4 | 4
12 | COC(=O)c1cnn2cc(-c3c(F)cccc3F)c(-c3ccc(CN4CC(c5n[nH]c(-c6ccccn6)n5)C4)cc3)nc12 [Example 28.0, 6-(2,6-difluorophenyl)-5-(4-{3-[5-(pyridine-2-yl)-1H-[1,2,4]triazole-3-yl]-azetidine-1-ylmethyl}-phenyl)-pyrazolo[1,5-a]pyrimidine-3-carboxylic acid methyl ester] | 14 | 761
13 | CC(C)c1nc2nc(-c3ccc(CN4CC(c5n[nH]c(-c6ccccn6)n5)C4)cc3)c(-c3ccccc3)cn2n1 [Example 29.0] | 84 | 35
14 | CC(C)c1nc2nc(-c3ccc(CN4CCC(c5cnc6ccccc6n5)CC4)cc3)c(-c3ccccc3)cn2n1 [Example 30.0, 2-{1-[4-(2-isopropyl-6-phenyl-[1,2,4]triazolo[1,5-a]pyrimidin-5-yl)benzyl]-piperidine-4-yl}-quinoxaline] | 6700 | 509
15 | Fc1ccc(-c2cn3ccnc3nc2-c2ccc(CN3CC(c4n[nH]c(-c5ccccn5)n4)C3)cc2)cc1 [Example 33.0, 6-(4-fluorophenyl)-7-{4-[3-(5-pyridine-2-yl-1H-[1,2,4]triazole-3-yl]-azetidine-1-ylmethyl]-phenyl}-imidazo[1,2-a]pyrimidine] | 26 | 253
16 | Cc1cccc(-c2nc(C3CN(Cc4ccc(-c5nc6nc(C)nn6cc5-c5ccc(F)cc5F)cc4)C3)n[nH]2)n1 [Example 35.0, 6-(2,4-difluorophenyl)-2-methyl-5-(4-{3-[5-(6-methyl-pyridine-2-yl)-1H-[1,2,4]triazole-3-yl]-azetidine-1-ylmethyl}-phenyl)-[1,2,4]triazolo[1,5-a]pyrimidine] | 29 | 42
17 | Cc1cccc(-c2nc(C3CN(Cc4ccc(-c5nc6nc(C)cn6cc5-c5ccccc5)cc4)C3)n[nH]2)n1 [Example 38.0, 2-methyl-7-(4-{3-[5-(6-methylpyridine-2-yl)-1H-[1,2,4]triazole-3-yl]-azetidine-1-ylmethyl}-phenyl)-6-phenyl-imidazo[1,2-a]pyrimidine] | 13 | 16
18 | Cc1cccc(-c2nc(C3CN(Cc4ccc(-c5nc6nc(C7CC7)nn6cc5-c5ccc(F)cc5)cc4)C3)n[nH]2)n1 [Example 39.0, 2-cyclopropyl-6-(4-fluorophenyl)-5-(4-{3-[5-(6-methyl-pyridine-2-yl)-1H-[1,2,4]triazole-3-yl]-azetidine-1-ylmethyl}-phenyl)-[1,2,4]triazolo[1,5-a]pyrimidine] | 29 | 27
